# Data reported in patent US11197859B2 (AUTIFONY THERAPEUTICS LIMITED, priority 2010, dated 2021).
# What was measured:
# [1] = tested on: parvalbumin-positive interneurons in the somatosensory cortex; test: Firing of parvalbumin-positive interneurons in somatosensory cortex slices, in vitro; assay type: cell-based, mouse; details: for frequency of action potential firing in response to step currents: vs TEA alone, p<0.05
# [2] = biological target: T1, human Kv3.2 channels (hKv3.2) (Homo sapiens, UniProt Q96PR1); test: IonWorks Quattro electrophysiology, hKv3.2 currents, activation time constant (Tauact); assay type: cell-based; details: hKv3.2, -15 mV pulse; compound 6.25 μM (concentration giving ~0.3 nA current)
# T1 construct: expressed in transfected cells
# T1 sequence (Q96PR1 1-638): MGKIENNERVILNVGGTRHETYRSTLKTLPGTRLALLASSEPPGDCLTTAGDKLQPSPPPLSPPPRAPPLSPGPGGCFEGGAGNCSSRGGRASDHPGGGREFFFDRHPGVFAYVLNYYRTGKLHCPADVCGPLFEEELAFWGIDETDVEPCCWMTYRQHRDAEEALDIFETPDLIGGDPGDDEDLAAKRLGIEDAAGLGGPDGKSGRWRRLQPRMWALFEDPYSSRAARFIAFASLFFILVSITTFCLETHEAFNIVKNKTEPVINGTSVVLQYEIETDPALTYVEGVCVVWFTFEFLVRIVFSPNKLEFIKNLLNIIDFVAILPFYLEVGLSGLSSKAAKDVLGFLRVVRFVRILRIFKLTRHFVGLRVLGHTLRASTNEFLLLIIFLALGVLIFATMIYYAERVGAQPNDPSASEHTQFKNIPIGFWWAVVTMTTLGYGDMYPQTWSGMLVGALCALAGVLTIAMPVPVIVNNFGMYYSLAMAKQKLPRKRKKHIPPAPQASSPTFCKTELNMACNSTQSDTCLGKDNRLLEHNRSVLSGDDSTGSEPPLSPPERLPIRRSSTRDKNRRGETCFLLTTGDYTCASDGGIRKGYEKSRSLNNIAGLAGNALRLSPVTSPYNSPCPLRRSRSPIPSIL
# Description: The ability of the compounds of the disclosure to modulate the voltage-gated potassium channel subtypes Kv3.2/3.1 may be determined using the following assay.
# To assess compound effects on human Kv3.2 channels (hKv3.2), a stable cell line expressing hKv3.2 was created by transfecting Chinese Hamster Ovary (CHO)-K1 cells with a pCIH5-hKv3.2 vector. Cells were cultured in DMEM/F12 medium supplemented by 10% Foetal Bovine Serum, 1× non-essential amino acids (Invitrogen) and 500 ug/ml of Hygromycin-B (Invitrogen). Cells were grown and maintained at 37° C. in a humidified environment containing 5% CO2 in air.
# The day of the experiment, cells were removed from the incubator and the culture medium removed. Cells were washed with 5 ml of Dulbecco's PBS (DPBS) calcium and magnesium free and detached by the addition of 3 ml Versene (Invitrogen, Italy) followed by a brief incubation at 37° C. for 5 minutes. The flask was tapped to dislodge cells and 10 ml of DPBS containing calcium and magnesium was added to prepare a cell suspension. The cell suspension was then placed into a 15 ml centrifuge tube and centrifuged for 2 min at 1200 rpm. After centrifugation, the supernatant was removed and the cell pellet re-suspended in 4 ml of DPBS containing calcium and magnesium using a 5 ml pipette to break up the pellet. Cell suspension volume was then corrected to give a cell concentration for the assay of approximately 3 million cells per ml.
# Experiments were conducted at room temperature using IonWorks Quattro™ planar array electrophysiology technology (Molecular Devices Corp.) with PatchPlate™ PPC. Stimulation protocols and data acquisition were carried out using a microcomputer (Dell Pentium 4). Planar electrode hole resistances(Rp) were determined by applying a 10 mV voltage step across each well. These measurements were performed before cell addition. […] Following this, amphotericin-B solution was added to the intracellular face of the electrode to achieve intracellular access. Cells were held at −70 mV. Leak subtraction was conducted in all experiments by applying 50 ms hyperpolarizing (10 mV) prepulses to evoke leak currents followed by a 20 ms period at the holding potential before test pulses. From the holding potential of −70 mV, a first test pulse to −15 mV was applied for 100 ms and following a further 100 ms at −70 mV, a second pulse to 40 mV was applied for 50 ms. Cells were then maintained for a further 100 ms at −100 mV and then a voltage ramp from −100 mV to 40 mV was applied over 200 ms. In all experiments, the test pulses protocol was performed in the absence (pre-read) and presence (post-read) of the test compound. Pre- and post-reads were separated by the compound addition followed by a 3 minute incubation.
# The intracellular solution contained the following (in mM): K-gluconate 100, KCl 54, MgCl2 3.2, HEPES 5, adjusted to pH 7.3 with KOH. Amphotericin-B solution was prepared as 50 mg/ml stock solution in DMSO and diluted to a final working concentration of 0.1 mg/ml in intracellular solution.
# The final assay dilution was 200 and the final compound concentrations were in the range 50 μM to 50 nM.
# The recordings were analysed and filtered using both seal resistance (>20 MΩ) and peak current amplitude (>500 pA at the voltage step of 40 mV) in the absence of compound to eliminate unsuitable cells from further analysis. Kv3 channel-mediated outward currents were measured determined from the mean amplitude of the current over the final 10 ms of the −15 mV voltage pulse minus the mean baseline current at −70 mV over a 10 ms period just prior to the −15 mV step. This Kv3 channel currents following addition of the test compound were then compared with the currents recorded prior to compound addition. […] The normalised data were analysed using ActivityBase or Excel software.
compound,measurement,setting,value
"CC[C@H]1NC(=O)N(c2ccc(Oc3ccc(C)c(OC)c3)nc2)C1=O [RE1, (5R)-5-ethyl-3-(6-{[4-methyl-3-(methyloxy)phenyl]oxy}-3-pyridinyl)-2,4-imidazolidinedione]",decrease of mean action potential half-width,"[1]; TEA (0.5 mM) + compound 1 μM vs TEA (0.5 mM) only, p<0.05, n=9",24%
same,frequency of action potential firing in response to step currents,"[1]; TEA (0.5 mM) + compound 1 μM, n=9",significantly reversed
same,decrease of mean action potential half-width,"[1]; TEA (0.5 mM) + compound 10 μM vs TEA (0.5 mM) only, p<0.01, n=5",36%
same,frequency of action potential firing in response to step currents,"[1]; TEA (0.5 mM) + compound 10 μM, n=5",significantly reversed
same,Tauact mean,[2],9.9 ms
